Results published in patent US9695155B2, “Herbicidal substituted pyrimidinyloxy benzene compounds” (E. I. DU PONT DE NEMOURS AND COMPANY, priority 2013, dated 2017).

Tests used:
[1] = system: velvetleaf; test: Test A preemergence; format: in vivo, Abutilon theophrasti
Outline: (§1)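 Visual 0–100 rating (100 = complete control) taken about 10 d post-treatment relative to untreated checks. Preemergence: directed soil spray on sown loam/sand pots. Postemergence: seedlings 2–10 cm, 1–2 leaf. Non-phytotoxic solvent formulation with surfactant.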

[2] = system: corn; test: Test C postemergence; format: in vivo, Zea mays
Text: (§2) Seeds of plant species selected from blackgrass (Alopecurus myosuroides), Italian ryegrass (Lolium multiflorum), wheat, winter (winter wheat, Triticum aestivum), galium (catchweed bedstraw, Galium aparine), corn (Zea mays), large (Lg) crabgrass (Digitaria sanguinalis), giant foxtail (Setaria faberii), johnsongrass (Sorghum halepense), lambsquarters (Chenopodium album), morningglory (Ipomoea coccinea), yellow nutsedge (Cyperus esculentus), pigweed (Amaranthus retroflexus), ragweed (common ragweed, Ambrosia elatior), soybean (Glycine max), barnyardgrass (Echinochloa crus-galli), oilseed rape (Brassica napus), waterhemp (common waterhemp, Amaranthus rudis), kochia (Kochia scoparia), wild oat (Avena fatua), surinam grass (Brachiaria decumbens), foxtail, green (green foxtail, Setaria viridis), goosegrass (Eleusine indica), bromegrass, downy (downy bromegrass, Bromus tectorum), nightshade (eastern black nightshade, Solanum ptycanthum), cocklebur (common cocklebur, Xanthium strumarium), cupgrass, woolly (woolly cupgrass, Eriochloa villosa), bermudagrass (Cynodon dactylon), sunflower, (common oilseed sunflower, Helianthus annuus), Russian thistle (Salsola kali), and velvetleaf (Abutilon theophrasti) were planted into a blend of loam soil and sand and treated preemergence with test chemicals formulated in a non-phytotoxic solvent mixture which included a surfactant.
(§3) At the same time, plants selected from these crop and weed species and also barley, winter (winter barley, Hordeum vulgare), windgrass (Apera spica-venti), chickweed (common chickweed, Stellaria media), deadnettle (henbit deadnettle, Lamium amplexicaule), and canarygrass (littleseed canarygrass, Phalaris minor) were planted in pots containing Redi-Earth® planting medium (Scotts Company, 14111 Scottslawn Road, Marysville, Ohio 43041) comprising spaghnum peat moss, vermiculite, wetting agent and starter nutrients and treated with postemergence applications of test chemicals formulated in the same manner. Plants ranged in height from 2 to 18 cm (1- to 4-leaf stage) for postemergence treatments. Treated plants and controls were maintained in a greenhouse for 13 to 15 days, after which time all species were compared to controls and visually evaluated. Plant response ratings, summarized in Table C, are based on a scale of 0 to 100 where 0 is no effect and 100 is complete control. A dash (-) response means no test result.

[3] = system: Heteranthera limosa; test: Test B flooded paddy test; format: in vivo; conditions: Flood, 250 g ai/ha, 0 to 100 scale where 0 is no effect and 100 is complete control
Outline: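 Plants at 2-leaf stage; pots flooded to 3 cm above soil and compound applied directly into paddy water, depth held throughout. After 13 to 15 days in greenhouse, visual rating versus controls on 0 (no effect) to 100 (complete control) scale.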

[4] = system: giant foxtail; test: Test A preemergence; format: in vivo, Setaria faberii
Outline: as §1

[5] = system: pigweed; test: Test A postemergence; format: in vivo, Amaranthus retroflexus
Outline: as §1

[6] = system: wheat, winter; test: Test C postemergence; format: in vivo, Triticum aestivum
Outline: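 Seeds were sown in loam–sand blend and sprayed preemergence, while plants at 1- to 4-leaf stage (2–18 cm) in peat-based medium received postemergence sprays; test chemicals were formulated in a non-phytotoxic solvent with surfactant. After 13–15 days in a greenhouse, injury was rated visually against controls, 0 (no effect) to 100 (complete control).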

[7] = system: chickweed; test: Test C postemergence; format: in vivo, Stellaria media
Text: as §2, §3

[8] = system: large (Lg) crabgrass; test: Test A preemergence; format: in vivo, Digitaria sanguinalis
Outline: as §1

[9] = system: large (Lg) crabgrass; test: Test C postemergence; format: in vivo, Digitaria sanguinalis
Text: as §2, §3

[10] = 125 g ai/ha, 0 to 100 scale where 0 is no effect and 100 is complete control
[11] = 500 g ai/ha, 0 to 100 scale, 0 no effect, 100 complete control, approx. 10 days
[12] = Postemergence, 31 g ai/ha, scale 0 to 100 (0 no effect, 100 complete control), 13 to 15 days
[13] = Postemergence, 62 g ai/ha, scale 0 to 100 (0 no effect, 100 complete control)
[14] = 31 g ai/ha, postemergence, visual rating, scale 0 to 100 (0 no effect, 100 complete control), 13 to 15 days
[15] = 125 g ai/ha, postemergence, visual rating, scale 0 to 100 (0 no effect, 100 complete control)
[16] = Postemergence, 62 g ai/ha, scale 0 to 100 (0 no effect, 100 complete control), 13 to 15 days
[17] = 500 g ai/ha, 0 to 100 scale where 0 is no effect and 100 is complete control

## Fc1cnc(Oc2ccccc2-n2cc(Br)cn2)nc1 [Compound 10, 2-[2-(4-bromo-1H-pyrazol-1-yl)phenoxy]-5-fluoropyrimidine]
[1]; Abutilon theophrasti, pre-emergence, 240 h, 125 g ai/ha, 0 to 100 scale where 0 is no effect and 100 is complete control, read-out: Velvetleaf plant response rating
  pest or weed control at 125 g/ha: 100%
[1]; Abutilon theophrasti, pre-emergence, 240 h, 500 g ai/ha, 0 to 100 scale, 0 no effect, 100 complete control, approx. 10 days, read-out: Velvetleaf plant response rating
  pest or weed control at 500 g/ha: 100%
[2]; Zea mays, post-emergence, 125 g ai/ha, postemergence, read-out: Plant response rating (0 to 100), Corn
  plant injury at 125 g/ha: 5%
[2]; Zea mays, post-emergence, 250 g ai/ha, postemergence, read-out: Plant response rating (0 to 100), Corn
  plant injury at 250 g/ha: 20%
[2]; Zea mays, post-emergence, Postemergence, 31 g ai/ha, scale 0 to 100 (0 no effect, 100 complete control), 13 to 15 days
  Corn plant response rating (crop injury, 0 = no effect, 100 = complete kill) at 31 g/ha: 5%
[2]; Zea mays, post-emergence, Postemergence, 62 g ai/ha, scale 0 to 100 (0 no effect, 100 complete control)
  Corn plant response rating (crop injury, 0 = no effect, 100 = complete kill) at 62 g/ha: 5%
[3]; Heteranthera limosa, read-out: Plant response rating, Ducksalad
  pest or weed control at 250 g/ha: 75%
[4]; Setaria faberi, pre-emergence, 240 h, 125 g ai/ha, 0 to 100 scale where 0 is no effect and 100 is complete control, read-out: Foxtail, Giant plant response rating
  pest or weed control at 125 g/ha: 90%
[4]; Setaria faberi, pre-emergence, 240 h, 500 g ai/ha, 0 to 100 scale, 0 no effect, 100 complete control, approx. 10 days, read-out: Foxtail, Giant plant response rating
  pest or weed control at 500 g/ha: 100%
[5]; Amaranthus retroflexus, post-emergence, 125 g ai/ha, 0 to 100 scale where 0 is no effect and 100 is complete control, read-out: Plant response rating, Pigweed
  pest or weed control at 125 g/ha: 100%
[5]; Amaranthus retroflexus, post-emergence, 240 h, 500 g ai/ha, 0 to 100 scale, 0 no effect, 100 complete control, read-out: Plant response rating Pigweed
  pest or weed control at 500 g/ha: 100%
[6]; Triticum aestivum, post-emergence, 125 g ai/ha, postemergence, read-out: Plant response rating (0 to 100), Wheat
  plant injury at 125 g/ha: 5%
[6]; Triticum aestivum, post-emergence, 250 g ai/ha, postemergence, read-out: Plant response rating (0 to 100), Wheat
  plant injury at 250 g/ha: 10%
[6]; Triticum aestivum, post-emergence, Postemergence, 31 g ai/ha, scale 0 to 100 (0 no effect, 100 complete control), 13 to 15 days, read-out: Plant response rating, Wheat
  plant injury at 31 g/ha: 5%
[6]; Triticum aestivum, post-emergence, Postemergence, 62 g ai/ha, scale 0 to 100 (0 no effect, 100 complete control), read-out: Plant response rating, Wheat
  plant injury at 62 g/ha: 5%
[7]; Stellaria media, post-emergence, 125 g ai/ha, postemergence, read-out: Plant response rating (0 to 100), Chickweed
  pest or weed control at 125 g/ha: 35%
[7]; Stellaria media, post-emergence, 250 g ai/ha, postemergence, read-out: Plant response rating (0 to 100), Chickweed
  pest or weed control at 250 g/ha: 98%
[7]; Stellaria media, post-emergence, Postemergence, 31 g ai/ha, scale 0 to 100 (0 no effect, 100 complete control), 13 to 15 days, read-out: Plant response rating, Chickweed
  pest or weed control at 31 g/ha: 5%
[7]; Stellaria media, post-emergence, Postemergence, 62 g ai/ha, scale 0 to 100 (0 no effect, 100 complete control), read-out: Plant response rating, Chickweed
  pest or weed control at 62 g/ha: 30%
[8]; Digitaria sanguinalis, pre-emergence, 240 h, 125 g ai/ha, 0 to 100 scale where 0 is no effect and 100 is complete control, read-out: Crabgrass, Large plant response rating
  pest or weed control at 125 g/ha: 100%
[8]; Digitaria sanguinalis, pre-emergence, 240 h, 500 g ai/ha, 0 to 100 scale, 0 no effect, 100 complete control, approx. 10 days, read-out: Crabgrass, Large plant response rating
  pest or weed control at 500 g/ha: 100%
[9]; Digitaria sanguinalis, post-emergence, 125 g ai/ha, postemergence, read-out: Plant response rating (0 to 100), Crabgrass, Large
  pest or weed control at 125 g/ha: 5%
[9]; Digitaria sanguinalis, post-emergence, 250 g ai/ha, postemergence, read-out: Plant response rating (0 to 100), Crabgrass, Large
  pest or weed control at 250 g/ha: 35%
[9]; Digitaria sanguinalis, post-emergence, Postemergence, 31 g ai/ha, scale 0 to 100 (0 no effect, 100 complete control), 13 to 15 days, read-out: Plant response rating, Crabgrass, Large
  pest or weed control at 31 g/ha: 5%
[9]; Digitaria sanguinalis, post-emergence, Postemergence, 62 g ai/ha, scale 0 to 100 (0 no effect, 100 complete control), read-out: Plant response rating, Crabgrass, Large
  pest or weed control at 62 g/ha: 5%

## N#Cc1cccc(Oc2ncc(F)cn2)c1-n1cc(Br)cn1 [Compound 62]
[1]; [10]
  Plant response rating, Velvetleaf: 50
[1]; [11]
  Velvetleaf plant response rating: 100
[2]; 125 g ai/ha, postemergence
  Plant response rating (0 to 100), Corn: 15
[2]; 250 g ai/ha, postemergence
  Plant response rating (0 to 100), Corn: 20
[2]; [12]
  Plant response rating, Corn: 5
[2]; [13]
  Plant response rating, Corn: 15
[3]
  Plant response rating, Ducksalad: 80
[4]; [10]
  Plant response rating, Foxtail, Giant: 90
[4]; [11]
  Foxtail, Giant plant response rating: 100
[5]; [10]
  Plant response rating, Pigweed: 100
[5]; 500 g ai/ha, 0 to 100 scale, 0 no effect, 100 complete control
  Plant response rating, Pigweed: 100
[6]; 125 g ai/ha, postemergence
  Plant response rating (0 to 100), Wheat: 5
[6]; 250 g ai/ha, postemergence
  Plant response rating (0 to 100), Wheat: 20
[6]; [12]
  Plant response rating, Wheat: 0
[6]; [13]
  Plant response rating, Wheat: 0
[7]; 125 g ai/ha, postemergence
  Plant response rating (0 to 100), Chickweed: 75
[7]; 250 g ai/ha, postemergence
  Plant response rating (0 to 100), Chickweed: 90
[7]; [12]
  Plant response rating, Chickweed: 50
[7]; [13]
  Plant response rating, Chickweed: 50
[8]; [10]
  Plant response rating, Crabgrass, Large: 90
[8]; [11]
  Crabgrass, Large plant response rating: 100
[9]; 125 g ai/ha, postemergence
  Plant response rating (0 to 100), Crabgrass, Large: 10
[9]; 250 g ai/ha, postemergence
  Plant response rating (0 to 100), Crabgrass, Large: 35
[9]; [12]
  Plant response rating, Crabgrass, Large: 5
[9]; [13]
  Plant response rating, Crabgrass, Large: 5

## N#Cc1cccc(Oc2ncc(Cl)cn2)c1-n1cc(-n2ccc(C(F)(F)F)n2)cn1 [Compound 284]
[2]; [14]
  Corn plant response rating: 5
[2]; [15]
  Plant response rating, Corn: 20
[2]; 250 g ai/ha, postemergence
  Plant response rating (0 to 100), Corn: 20
[2]; [16]
  Plant response rating, Corn: 10
[3]
  Plant response rating, Ducksalad: 80
[4]; 125 g ai/ha
  Foxtail, Giant plant response rating (0 to 100 scale): 90
[4]; [17]
  Foxtail, Giant plant response rating: 90
[5]; 125 g ai/ha, 0 to 100 scale, 0 no effect, 100 complete control
  Plant response rating, Pigweed: 100
[5]; [17]
  Plant response rating, Pigweed: 100
[6]; [14]
  Wheat plant response rating: 0
[6]; [15]
  Plant response rating, Wheat: 5
[6]; 250 g ai/ha, postemergence
  Plant response rating (0 to 100), Wheat: 5
[6]; [16]
  Plant response rating, Wheat: 5
[7]; [14]
  Chickweed plant response rating: 65
[7]; [15]
  Plant response rating, Chickweed: 100
[7]; 250 g ai/ha, postemergence
  Plant response rating (0 to 100), Chickweed: 100
[7]; [16]
  Plant response rating, Chickweed: 100
[9]; [14]
  Crabgrass, Large plant response rating: 5
[9]; [15]
  Plant response rating, Crabgrass, Large: 10
[9]; 250 g ai/ha, postemergence
  Plant response rating (0 to 100), Crabgrass, Large: 10
[9]; [16]
  Plant response rating, Crabgrass, Large: 5
